Assay results as given in ChEMBL document CHEMBL1201862, “PubChem BioAssay data set” (2004).
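Results reflect a 48-hour exposure of cells in 96-well plates to compound at five concentrations. GI50 is the concentration that inhibits growth by half.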 Active and inactive are the calls of the source. Cut-off read from the data, not from the text of the source: active = GI50 up to about 1.1 µM and inactive = higher.

Legend:
Assay in all cases: inhibition of tumour cell growth, NCI panel, 48 h
HCT-116 = system: HCT-116
UO-31 = system: UO-31
EKVX = system: EKVX
RXF 393 = system: RXF 393
K562 = system: K562
SF-268 = system: SF-268
ACHN = system: ACHN
MDA-MB-435 = system: MDA-MB-435
NCI/ADR-RES = system: NCI/ADR-RES
HCT-15 = system: HCT-15
M14 = system: M14
SW-620 = system: SW-620
SNB-75 = system: SNB-75
RPMI-8226 = system: RPMI-8226
OVCAR-5 = system: OVCAR-5
SK-MEL-2 = system: SK-MEL-2
SF-295 = system: SF-295
IGROV-1 = system: IGROV-1
HOP-62 = system: HOP-62
HCC 2998 = system: HCC 2998

| Structure (SMILES) | GI50 (HCT-116) | GI50 (UO-31) | GI50 (EKVX) | GI50 (RXF 393) | GI50 (K562) | GI50 (SF-268) | GI50 (ACHN) | GI50 (MDA-MB-435) | GI50 (NCI/ADR-RES) | GI50 (HCT-15) | GI50 (M14) | GI50 (SW-620) | GI50 (SNB-75) | GI50 (RPMI-8226) | GI50 (OVCAR-5) | GI50 (SK-MEL-2) | GI50 (SF-295) | GI50 (IGROV-1) | GI50 (HOP-62) | GI50 (HCC 2998) |
| --- | --- | --- | --- | --- | --- | --- | --- | --- | --- | --- | --- | --- | --- | --- | --- | --- | --- | --- | --- | --- |
| CC(C)Oc1c(O)c2c3c(oc(=O)n3C=CC2c2ccccc2F)c1OC(C)C (stereo not given) | 21.7 µM (inactive) | 24.4 µM (inactive) | 41.1 µM (inactive) | 21 µM (inactive) | 30.5 µM (inactive) | 64.9 µM (inactive) | 35.7 µM (inactive) | 26.3 µM (inactive) | 34.4 µM (inactive) | 33 µM | 24.8 µM (inactive) | 32.9 µM (inactive) | 20.7 µM (inactive) | 17.3 µM (inactive) | 20 µM (inactive) | 15.5 µM (inactive) | 25.6 µM (inactive) | 44.8 µM (inactive) | 27.5 µM (inactive) | – |
| O=C(O)CNCCc1ccccc1 | > 100 µM (inactive) | > 100 µM (inactive) | > 100 µM (inactive) | > 100 µM (inactive) | > 100 µM (inactive) | > 100 µM (inactive) | > 100 µM (inactive) | > 100 µM (inactive) | > 100 µM (inactive) | > 100 µM | > 100 µM (inactive) | > 100 µM (inactive) | > 100 µM (inactive) | > 100 µM (inactive) | > 100 µM (inactive) | > 100 µM (inactive) | > 100 µM (inactive) | > 100 µM (inactive) | > 100 µM (inactive) | – |
| O=C(Nc1ccccc1)N1CC(CN2CCN(c3ccccc3)CC2)OC1=O (stereo not given) | > 100 µM (inactive) | > 100 µM (inactive) | > 100 µM (inactive) | > 100 µM (inactive) | > 100 µM (inactive) | > 100 µM (inactive) | > 100 µM (inactive) | > 100 µM (inactive) | > 100 µM (inactive) | > 100 µM | > 100 µM (inactive) | > 100 µM (inactive) | – | > 100 µM (inactive) | > 100 µM (inactive) | > 100 µM (inactive) | > 100 µM (inactive) | 46.3 µM (inactive) | > 100 µM (inactive) | > 100 µM (inactive) |
| COc1ccc2c(c1)CC[C@@H]1[C@@H]2CC[C@]2(C)C(=O)/C(=C/c3ccc(O)c(OC)c3)C[C@@H]12 | – | 71 µM (inactive) | 45.8 µM (inactive) | 41.5 µM (inactive) | 50.5 µM (inactive) | – | > 100 µM (inactive) | 32 µM (inactive) | 44.2 µM (inactive) | 28.3 µM | 35.6 µM (inactive) | 58.2 µM (inactive) | – | 34.7 µM (inactive) | 76 µM (inactive) | 69.2 µM (inactive) | 55.6 µM (inactive) | 63.8 µM (inactive) | 62.7 µM (inactive) | 31.6 µM (inactive) |
| COC(=O)C1=C(C(=O)OC)SC2(S1)C1=C(CCC1)SC(C(=O)OC)=C2C(=O)OC | 1.77 µM (inactive) | 10.8 µM (inactive) | 14.9 µM (inactive) | 4.62 µM (inactive) | 3.09 µM (inactive) | 15.5 µM (inactive) | 12.3 µM (inactive) | 12.9 µM (inactive) | 18.8 µM (inactive) | 6.08 µM | 18.3 µM (inactive) | 2.43 µM (inactive) | – | 1.86 µM (inactive) | 19.4 µM (inactive) | 18.8 µM (inactive) | 15.6 µM (inactive) | 12.9 µM (inactive) | 12.7 µM (inactive) | 16.3 µM (inactive) |
| CSc1nncc2[nH]c(C)nc12 | > 100 µM (inactive) | > 100 µM (inactive) | > 100 µM (inactive) | – | > 100 µM (inactive) | – | > 100 µM (inactive) | > 100 µM (inactive) | > 100 µM (inactive) | > 100 µM | > 100 µM (inactive) | > 100 µM (inactive) | > 100 µM (inactive) | > 100 µM (inactive) | > 100 µM (inactive) | > 100 µM (inactive) | > 100 µM (inactive) | > 100 µM (inactive) | > 100 µM (inactive) | > 100 µM (inactive) |
| O=S(=O)(O)c1ccc2c(/N=N/c3ccc(Sc4ccc(/N=N/c5c(O)ccc6cc(S(=O)(=O)O)ccc56)cc4)cc3)c(O)ccc2c1 | > 100 µM (inactive) | > 100 µM (inactive) | > 100 µM (inactive) | > 100 µM (inactive) | > 100 µM (inactive) | > 100 µM (inactive) | > 100 µM (inactive) | > 100 µM (inactive) | > 100 µM (inactive) | > 100 µM | > 100 µM (inactive) | > 100 µM (inactive) | – | > 100 µM (inactive) | > 100 µM (inactive) | > 100 µM (inactive) | > 100 µM (inactive) | > 100 µM (inactive) | > 100 µM (inactive) | > 100 µM (inactive) |
| c1ccc2c(c1)[nH]c1c2cc[n+]2cc3c(cc12)CCCC3 | 1.59 µM (inactive) | 16.3 µM (inactive) | 4.89 µM (inactive) | – | 1.6 µM (inactive) | 2.93 µM (inactive) | 3.75 µM (inactive) | 1.91 µM (inactive) | 44.6 µM (inactive) | 10.5 µM | 2.3 µM (inactive) | 2.1 µM (inactive) | 5.96 µM (inactive) | 1.53 µM (inactive) | 2.45 µM (inactive) | 1.63 µM (inactive) | 3.18 µM (inactive) | 7.18 µM (inactive) | 1.66 µM (inactive) | 1.87 µM (inactive) |
| N=C1NC(c2ccc(Cl)cc2)=CC(c2cccc(Cl)c2)S1 (stereo not given) | 26.4 µM (inactive) | 29 µM (inactive) | 25.4 µM (inactive) | 23.8 µM (inactive) | 34.3 µM (inactive) | 41.8 µM (inactive) | 24.4 µM (inactive) | 18.2 µM (inactive) | 45.4 µM (inactive) | 13.1 µM | 48.4 µM (inactive) | 34.5 µM (inactive) | – | 17.3 µM (inactive) | 66.8 µM (inactive) | 20.6 µM (inactive) | 33.8 µM (inactive) | 30.9 µM (inactive) | 38.7 µM (inactive) | 27.7 µM (inactive) |
| CS/C1=C(\c2ccc(C)cc2)N(c2ccccc2)C(=O)C(=O)N(c2ccccc2)/C(c2ccc(C)cc2)=C(/SC)SS1 | > 100 µM (inactive) | > 100 µM (inactive) | > 100 µM (inactive) | – | > 100 µM (inactive) | > 100 µM (inactive) | > 100 µM (inactive) | > 100 µM (inactive) | > 100 µM (inactive) | > 100 µM | 82.8 µM (inactive) | > 100 µM (inactive) | > 100 µM (inactive) | > 100 µM (inactive) | > 100 µM (inactive) | > 100 µM (inactive) | > 100 µM (inactive) | > 100 µM (inactive) | > 100 µM (inactive) | > 100 µM (inactive) |
| COc1ccc(-c2c(C(C)=O)c(C)n(C3OC(CO)C(O)C(O)C3O)c(=S)c2C#N)cc1 (stereo not given) | 86.9 µM (inactive) | > 100 µM (inactive) | 55.1 µM (inactive) | 73.1 µM (inactive) | 37.8 µM (inactive) | > 100 µM (inactive) | 80.2 µM (inactive) | 72.6 µM (inactive) | 93.5 µM (inactive) | > 100 µM | 60.1 µM (inactive) | 78.5 µM (inactive) | 80.9 µM (inactive) | 83.6 µM (inactive) | > 100 µM (inactive) | – | 72.9 µM (inactive) | > 100 µM (inactive) | > 100 µM (inactive) | – |
